Experimental data published in PubChem BioAssay AID1963433 (Molecular Pharmacology Branch, DTP, NCI, 2024).

System: 772245-204-R-J1-PDC complex spheroid growth
Assay: Anticancer human tumor 772245-204-R-J1-PDC patient-derived rhabdomyosarcoma cell line growth inhibition [Asc]
Details: for IC50: curve of first compound; for viability, T/C: stronger effect = lower value
Protocol: Multicellular complex tumor spheroid response to apoptosis pathway targeting inhibitors Alrizomadlin, Pelcitoclax, and Dasminapant in combination with a variety of drugs and investigational agents in selected tumor cell lines
The MDM2 inhibitor alrizomadlin, the Bcl-2/Bcl-xL inhibitor pelcitoclax, and the IAPs inhibitor dasminapant were evaluated both individually and in combination with standard of care and investigational anticancer small molecules within a complex spheroid model of solid tumors. . Complex spheroids include a stromal component modeled by human endothelial cells (HUVEC) and fibroblasts modeled by human mesenchymal stem cells (MSCs). The concentration ranges selected for each drug and investigational agent were based upon clinically achievable concentrations if the clinical Cmax of the agent was known.
Compounds. The drugs and investigational agents: alrizomadlin (APG-115; NSC831270), pelcitoclax (APG-1252; NSC835773), dasminapant (APG-1387;NSC834197), TAK-243 (NSC785004), copanlisib (NSC809693), olaparib (NSC753686), talazoparib (NSC767125), cobimetinib (NSC 768068), eltanexor (KPT-8602, NSC 794443), abemaciclib (NSC 768073), sotorasib (NSC818433), adagrasib (NSC 831453), MRTX-1133 (NSC 836407), Iadademestat (ORY1001, NSC 806812), and RMC-4630 (NSC839698), were obtained from the NCI Developmental Therapeutics Program Chemical Repository. The FDA-approved anticancer drug set is available from the Developmental Therapeutics Program at https://dtp.cancer.gov/organization/dscb/obtaining/available plates.htm. […] The stock solutions were prepared in dimethyl sulfoxide (DMSO, Sigma-Aldrich, St. Louis, MO, cat. D2650) at 800-fold the tested concentration and stored at -70 degrees C prior to their use. All drugs and investigational agents were tested over a range starting from a high concentration at or near the clinical Cmax and decreasing in half-log increments. If the clinical Cmax for an agent had not been determined, the highest concentration tested was 10 microM.
The patient-derived cancer (PDC) cell lines include five colon adenocarcinomas: 186277-243-T-J2-PDC, 616215-338-R-J1-PDC, 439559-082-T-J2-PDC, 463943-066-T-J2-PDC, and 519858-162-T-J1-PDC; three pancreatic carcinomas: 323965-272-R-J2-PDC, 521955-158-R6-J3-PDC, and 521955-158-R2-J5-PDC; two uterine sarcomas: 327498-152-R-J2-PDC and 993429-296-R-J1-PDC; two rhabdomyosarcomas: 755483-174-R-J1-PDC and 772245-204-R-J1-PDC; two soft tissue sarcomas: 126254-015-R-J1-PDC and 494315-158-R-J1-PDC; two malignant fibrous histiocytomas: 317291-083-R-J1-PDC and 596521-263-R-J1-PDC; two breast carcinomas: 171881-019-R-J1-PDC and 885512-296-R-J2-PDC; and one ovarian carcinoma: 6556581-035-R-J-PDC were obtained from the NCI PDMR, (https://pdmr.cancer.gov). The established cell lines HSSY-2 synovial sarcoma (RRID:CVCL 8719), SYO-1 synovial sarcoma (RRID:CVCL_7146), MPNST malignant peripheral neural sheath tumor were obtained from the Sloan Kettering Institute. The following established cell lines were purchased from the American Type Culture Collection (ATCC, Manassas, VA), Sor the received from the NCI repository:, PANC-1 pancreatic carcinoma (CRL-1469, RRID:CVCL_0480), OVCAR-5 ovarian carcinoma (RRID:CVCL_1628), OVCAR-8 ovarian carcinoma (RRID:CVCL_1629), , MCF-7 breast carcinoma (CRL-12584, RRID:CVCL_0031), MDA-MB-231 breast carcinoma (CRL-12532, RRID:CVCL_0062), NCI-H1876 small cell lung carcinoma (CRL-5902, RRID:CVCL_1503), NCI-H510A small cell lung carcinoma (HTB-184, RRID:CVCL_1565), NCI-H1417 (CRL-5869, RRID:CVCL_1469), and NCI-H196 small cell lung carcinoma (CRL-5823, RRID:CVCL_1509). Dr. Peter Houghton (Greehey Children's Cancer Research Institute, University of Texas Health Science Center, San Antonio, TX) provided Rh-18 rhabdomyosarcoma (RRID:CVCL_1659). Pooled donor human umbilical vein endothelial cells (HUVEC, Lonza, cat. CC-2519) and human mesenchymal stem cells (hMSC, Lonza, cat. PT-2501) were purchased from Lonza (Walkersville, MD).
Cell Culture. […]

[1] = second compound 0.03 µM, first compound 0.00316 µM
[2] = second compound 0.03 µM, first compound 0.01 µM
[3] = second compound 0.03 µM, first compound 0.0316 µM
[4] = second compound 0.03 µM, first compound 0.1 µM
[5] = second compound 0.03 µM, first compound 0.316 µM
[6] = second compound 0.03 µM, first compound 1 µM
[7] = second compound 0.0949 µM, first compound 0.00316 µM
[8] = second compound 0.0949 µM, first compound 0.01 µM
[9] = second compound 0.0949 µM, first compound 0.0316 µM
[10] = second compound 0.0949 µM, first compound 0.1 µM
[11] = second compound 0.0949 µM, first compound 0.316 µM
[12] = second compound 0.0949 µM, first compound 1 µM
[13] = second compound 0.3 µM, first compound 0.00316 µM
[14] = second compound 0.3 µM, first compound 0.01 µM
[15] = second compound 0.3 µM, first compound 0.0316 µM
[16] = second compound 0.3 µM, first compound 0.1 µM
[17] = second compound 0.3 µM, first compound 0.316 µM
[18] = second compound 0.3 µM, first compound 1 µM
[19] = second compound 0.949 µM, first compound 0.00316 µM
[20] = second compound 0.949 µM, first compound 0.01 µM
[21] = second compound 0.949 µM, first compound 0.0316 µM
[22] = second compound 0.949 µM, first compound 0.1 µM
[23] = second compound 0.949 µM, first compound 0.316 µM
[24] = second compound 0.949 µM, first compound 1 µM
[25] = second compound 3 µM, first compound 0.00316 µM
[26] = second compound 3 µM, first compound 0.01 µM
[27] = second compound 3 µM, first compound 0.0316 µM
[28] = second compound 3 µM, first compound 0.1 µM
[29] = second compound 3 µM, first compound 0.316 µM
[30] = second compound 3 µM, first compound 1 µM
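Also: compound exposure lasted seven days.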
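For viability, T/C in this document: 100% = DMSO vehicle control viability.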

Compound | IC50 (second compound 0.03 µM) | IC50 (second compound 0.0949 µM) | IC50 (second compound 0.3 µM) | IC50 (second compound 0.949 µM) | IC50 (second compound 3 µM) | viability, T/C [1] | viability, T/C [2] | viability, T/C [3] | viability, T/C [4] | viability, T/C [7] | viability, T/C [8] | viability, T/C [9] | viability, T/C [10] | viability, T/C [13] | viability, T/C [14] | viability, T/C [15] | viability, T/C [16] | viability, T/C [19] | viability, T/C [20] | viability, T/C [21] | other results
CCN1CCN(Cc2ccc(Nc3ncc(F)c(-c4cc(F)c5nc(C)n(C(C)C)c5c4)n3)nc2)CC1 + CCN1C(C(=O)NC23CCC(C(=O)O)(CC2)CC3)C(c2cccc(Cl)c2F)C2(C(=O)Nc3cc(Cl)ccc32)C12CCCCC2 | > 1000 nM | > 1000 nM | > 1000 nM | > 1000 nM | > 1000 nM | 100% | 97.4% | 103% | 110% | 99.5% | 110% | 101% | 111% | 106% | 111% | 122% | 103% | 94.3% | 93.4% | 100% | viability, T/C [5]: 114%; viability, T/C [6]: 116%; viability, T/C [11]: 114%; viability, T/C [12]: 116%; viability, T/C [17]: 102%; viability, T/C [18]: 131%; viability, T/C [22]: 102%; viability, T/C [23]: 92.9%; viability, T/C [24]: 96%; viability, T/C [25]: 77.9%; viability, T/C [26]: 84.7%; viability, T/C [27]: 85.5%; viability, T/C [28]: 89.9%; viability, T/C [29]: 80.1%; viability, T/C [30]: 121%
Cn1ncnc1[C@H]1c2n[nH]c(=O)c3cc(F)cc(c23)N[C@@H]1c1ccc(F)cc1 + CCN1C(C(=O)NC23CCC(C(=O)O)(CC2)CC3)C(c2cccc(Cl)c2F)C2(C(=O)Nc3cc(Cl)ccc32)C12CCCCC2 | > 100 nM | > 100 nM | > 100 nM | > 100 nM | > 100 nM | 95% | 85.2% | 86.3% | 81.9% | 110% | 88.2% | 88.5% | 91.9% | 107% | 95.2% | 93% | 89.6% | 119% | 92.3% | 75.4% | viability, T/C (second compound 0.03 µM, first compound 0.000316 µM): 118%; viability, T/C (second compound 0.03 µM, first compound 0.001 µM): 106%; viability, T/C (second compound 0.0949 µM, first compound 0.000316 µM): 103%; viability, T/C (second compound 0.0949 µM, first compound 0.001 µM): 112%; viability, T/C (second compound 0.3 µM, first compound 0.000316 µM): 116%; viability, T/C (second compound 0.3 µM, first compound 0.001 µM): 115%; viability, T/C (second compound 0.949 µM, first compound 0.000316 µM): 94.2%; viability, T/C (second compound 0.949 µM, first compound 0.001 µM): 99.1%; viability, T/C [22]: 76.6%; viability, T/C (second compound 3 µM, first compound 0.000316 µM): 82.7%; viability, T/C (second compound 3 µM, first compound 0.001 µM): 94%; viability, T/C [25]: 75.8%; viability, T/C [26]: 65.9%; viability, T/C [27]: 70.8%; viability, T/C [28]: 62.5%
O=C(c1ccc(F)c(F)c1Nc1ccc(I)cc1F)N1CC(O)([C@@H]2CCCCN2)C1 + CCN1C(C(=O)NC23CCC(C(=O)O)(CC2)CC3)C(c2cccc(Cl)c2F)C2(C(=O)Nc3cc(Cl)ccc32)C12CCCCC2 | > 1000 nM | > 1000 nM | > 1000 nM | > 1000 nM | > 1000 nM | 115% | 109% | 108% | 112% | 113% | 91.5% | 108% | 105% | 102% | 121% | 98.6% | 106% | 110% | 109% | 115% | viability, T/C [5]: 100%; viability, T/C [6]: 50.8%; viability, T/C [11]: 115%; viability, T/C [12]: 70.6%; viability, T/C [17]: 106%; viability, T/C [18]: 73.9%; viability, T/C [22]: 98.5%; viability, T/C [23]: 105%; viability, T/C [24]: 62.3%; viability, T/C [25]: 90.9%; viability, T/C [26]: 87.1%; viability, T/C [27]: 85.1%; viability, T/C [28]: 100%; viability, T/C [29]: 88.5%; viability, T/C [30]: 53.3%
